Measurements reported in patent publication US20230104936A1, “TRPML MODULATORS” (Casma Therapeutics, Inc., priority 2019, published 2023).

Tested on: TFEB
Assay: TFEB nuclear translocation assay, HeLa wt cells
Format: cell-based
Conditions: Homo sapiens, HeLa, 2 h, 2 hrs compound treatment, Table 1 does not say HeLa wt or TRPML1 KO
In short: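 HeLa wt cells were treated with compound for 2 hrs at 37° C, then fixed in 4% PFA and immunostained for TFEB with an Alexa 488 secondary and Hoechst nuclear counterstain. Automated epifluorescence imaging at ×20 gave the ratio of nuclear TFEB intensity to a perinuclear ring region, from which AC50 was derived.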

`CS(=O)(=O)c1ccc(S(=O)(=O)Nc2ccccc2N2CCC3(CC2)CN(C(=O)OC2CCOC2)c2cc(F)ccc23)cc1` (stereo not shown) [Compound A-469, oxolan-3-yl 6-fluoro-1′-[2-(4-methanesulfonylbenzenesulfonamido)phenyl]-1,2-dihydrospiro[indole-3,4′-piperidine]-1-carboxylate] and `CS(=O)(=O)c1ccc(S(=O)(=O)Nc2ccccc2N2CCC3(CC2)COCc2ccccc23)cc1` [Compound A-481, N-(2-{1,3-dihydrospiro[2-benzopyran-4,4′-piperidin]-1′-yl}phenyl)-4-methanesulfonylbenzene-1-sulfonamide] cannot be ordered by AC50: ≤ 2 µM for the first, ≤ 2 µM for the second.

`CN(C)S(=O)(=O)c1ccc(S(=O)(=O)Nc2ccccc2N2CCC(C(=O)C(C)(C)C)CC2)cc1` [Compound A-470, N4-{2-[4-(2,2-dimethylpropanoyl)piperidin-1-yl]phenyl}-N1,N1-dimethylbenzene-1,4-disulfonamide] and `CN(C)S(=O)(=O)c1ccc(S(=O)(=O)Nc2ccccc2N2CCC(O)(C(C)(C)C)CC2)cc1` [Compound A-471, N1-(2-(4-(tert-butyl)-4-hydroxypiperidin-1-yl)phenyl)-N4,N4-dimethylbenzene-1,4-disulfonamide] cannot be ordered by AC50: ≤ 2 µM for the first, ≤ 2 µM for the second.

First: CN1CC2(CCN(c3ccccc3NS(=O)(=O)c3ccc(S(=O)(=O)N(C)C)cc3)C(=O)C2)c2ccc(F)cc21 (stereo not shown) [Compound A-472, N4-(2-{6-fluoro-1-methyl-2′-oxo-1,2-dihydrospiro[indole-3,4′-piperidin]-1′-yl}phenyl)-N1,N1-dimethylbenzene-1,4-disulfonamide]
Second: CN(C)S(=O)(=O)c1ccc(S(=O)(=O)Nc2ccccc2N2CCC3(CC2)OC(=O)c2cc(F)cnc23)cc1 [Compound A-473, N4-(2-{3-fluoro-5-oxo-5H-spiro[furo[3,4-b]pyridine-7,4′-piperidin]-1′-yl}phenyl)-N1,N1-dimethylbenzene-1,4-disulfonamide]
The AC50 of the first is lower: ≤ 2 µM for the first, 2.01 to 8 µM for the second.

`CC(c1ccccc1N1CCN(C(=O)C(C)(C)C)CC1)S(=O)(=O)c1ccc(S(=O)(=O)N(C)C)cc1` (stereo not shown) [Compound A-474, 4-(1-{2-[4-(2,2-dimethylpropanoyl)piperazin-1-yl]phenyl}ethanesulfonyl)-N,N-dimethylbenzene-1-sulfonamide] and `CN(C)S(=O)(=O)c1ccc(S(=O)(=O)Nc2ccccc2N2CCCN(C(=O)C(C)(C)C)CC2)cc1` [Compound A-480, N4-{2-[4-(2,2-dimethylpropanoyl)-1,4-diazepan-1-yl]phenyl}-N1,N1-dimethylbenzene-1,4-disulfonamide] fall in the same range of AC50: 2.01 to 8 µM for the first, 2.01 to 8 µM for the second.

Compared with `CCC1(N2CCCCC2)CCN(c2ccccc2NS(=O)(=O)c2ccc(S(=O)(=O)N(C)C)cc2)CC1` [Compound A-475, N4-(2-{4′-ethyl-[1,4′-bipiperidin]-1′-yl}phenyl)-N1,N1-dimethylbenzene-1,4-disulfonamide], `CN(C)S(=O)(=O)c1ccc(S(=O)(=O)Nc2ccccc2N2CCN(C(=O)C3(C)CCCO3)CC2)cc1` (stereo not shown) [Compound A-476, N1,N1-dimethyl-N4-{2-[4-(2-methyloxolane-2-carbonyl)piperazin-1-yl]phenyl}benzene-1,4-disulfonamide] is higher in AC50: ≤ 2 µM for the first, 2.01 to 8 µM for the second.

Compared with `CN(C)S(=O)(=O)c1ccc(S(=O)(=O)Nc2ccccc2N2CCN(C(=O)C3(C)CC(F)(F)C3)CC2)cc1` [Compound A-478, N4-{2-[4-(3,3-difluoro-1-methylcyclobutanecarbonyl)piperazin-1-yl]phenyl}-N1,N1-dimethylbenzene-1,4-disulfonamide], `CN(C)S(=O)(=O)c1ccc(S(=O)(=O)Nc2ccccc2N2CCC(C3CC3(F)F)CC2)cc1` (stereo not shown) [Compound A-479, N4-{2-[4-(2,2-difluorocyclopropyl)piperidin-1-yl]phenyl}-N1,N1-dimethylbenzene-1,4-disulfonamide] is lower in AC50: 2.01 to 8 µM for the first, ≤ 2 µM for the second.

In the case of `NS(=O)(=O)c1ccc(S(=O)(=O)Nc2ccccc2N2CCC(c3ccc(Cl)cc3F)CC2)cc1` [Compound A-482, N1-{2-[4-(4-chloro-2-fluorophenyl)piperidin-1-yl]phenyl}benzene-1,4-disulfonamide], the AC50 is reported as 2.01 to 8 µM.
